Measured values reported in patent US7037660B2, “Methods for detecting and quantifying binding and inhibition of binding of species to nucleic acids” (Message Pharmaceuticals, priority 2001, dated 2006).

Key:
[1] = Proton exchange pKA of probe; assay type: physicochemical; settings: dynamic proton exchange of the probe
Protocol: Displacement of Mn^2+ from RNA by RSG1.2, or neomycin b: Binding of RSG1.2 and neomycin b to each of the hairpins was studied at [RNA] between 20 and 30 μM, and again at [RNA]˜3 μM. The higher concentration studies were performed in a manner identical to that described above for the Mg^2+ exchange reactions. For the low concentration studies, HPO3^2− (20 mM) was used as the probe ion. Reactions were run in 10 mM PIPES buffer, with 45 mM KCl and [Mn^2+] between 50 and 150 nM. The pH of the samples was maintained at 7.8 in these experiments. Studies utilizing HPO3^2− are impractical at lower pH where the probe undergoes dynamic proton exchange (pKA=6.0) leading to significant shortening of the diamagnetic ^31P T2.

[2] = tested on: 27-nt A-site RNA construct; assay: Displacement of Mn2+ from RNA by neomycin (probe 31P relaxation); assay type: binding
Protocol: The ^31P T2 was measured for each sample by varying the length (number of pulses) of the CPMG portion of the pulse sequence in FIG. 2 and determining the effect of this change on the intensity (i) of the signals. […] The dl delay was typically 5 to 20 seconds, and delays in the inept and reverse inept parts of the sequence were set to a value equal to 1/4J, where J is the ^1H—^31P coupling constant. Delays between pulses in the CPMG train varied from 50 to 500 microseconds.
The data shown in FIG. 9 were most consistent with a model where three neomycin molecules were bound to each RNA molecule with subsequent release of Mn^2+.
(§1) Mn^2+ binding by RNA constructs, and its displacement by either K^+ or Mg^2+. Samples containing MeOPH (5 mM) and PIPES buffer (5 mM, pH=7.2), and 3 μM Mn^2+ were titrated with each RNA. The ^31P transverse relaxation rates (R2=1/T2) of the probe in the resulting solutions were measured. Plots of R2 versus [RNA] were prepared. The effects of [K^+] and [Mg^2+] on Mn^2+ binding were determined by titrating similar solutions containing buffer, MeOPH, Mn^2+ and one of the RNAs (10 to 30 μM) with solutions of either KCl or MgCl2, and monitoring the relaxation rate of the probe as a function of cation concentration. The effects of [K^+] were studied over the range of 12.5 to 150 mM ([…] K^+ is reportedly 140 mM). Mn^2+ displacements from each of the hairpins by Mg^2+, neomycin b, and RSG1.2 were studied in the absence of added KCl and with sufficient KCl added to bring the total [K^+] to 100 mM.
Displacement of Mn^2+ from RNA by RSG1.2, or neomycin b: Binding of RSG1.2 and neomycin b to each of the hairpins was studied at [RNA] between 20 and 30 μM, and again at [RNA]˜3 μM. The higher concentration studies were performed in a manner identical to that described above for the Mg^2+ exchange reactions. For the low concentration studies, HPO3^2− (20 mM) was used as the probe ion. Reactions were run in 10 mM PIPES buffer, with 45 mM KCl and [Mn^2+] between 50 and 150 nM. The pH of the samples was maintained at 7.8 in these experiments. […]

RRE1 = assay: Displacement of Mn2+ from RNA by neomycin b (probe 31P relaxation); assay type: binding; settings: each condition studied
Protocol: as §1
(§2) Displacement of Mn^2+ from RNA by RSG1.2, or neomycin b: Binding of RSG1.2 and neomycin b to each of the hairpins was studied at [RNA] between 20 and 30 μM, and again at [RNA]˜3 μM. The higher concentration studies were performed in a manner identical to that described above for the Mg^2+ exchange reactions. For the low concentration studies, HPO3^2− (20 mM) was used as the probe ion. Reactions were run in 10 mM PIPES buffer, with 45 mM KCl and [Mn^2+] between 50 and 150 nM. […]

RRE2 = assay: as above; assay type: binding; settings: each condition studied
Protocol: as §1, §2

another RRE1 model = settings: cited from earlier work

Compound	pKA [1]	neomycin molecules bound to each RNA molecule ([2]; RNA 27 μM, Mn^2+ 16 μM (Example 11))	equivalents of neomycin bound ([2]; [RNA]=2.7 μM, 100 mM K^+)	equivalents of neomycin bound ([2]; [RNA]=27 μM (Example 16, data not shown))	equivalents of neomycin bound (RRE1)	equivalents of neomycin bound (RRE2)	equivalents of neomycin b bound (another RRE1 model)
O=[PH](O)O [HPO3^2−, phosphite dianion]	6.0	–	–	–	–	–	–
NC[C@@H]1O[C@H](O[C@H]2[C@@H](O)[C@H](O[C@@H]3[C@@H](O)[C@H](N)C[C@H](N)[C@H]3O[C@H]3O[C@H](CN)[C@@H](O)[C@H](O)[C@H]3N)O[C@@H]2CO)[C@H](N)[C@@H](O)[C@@H]1O [neomycin, neomycin b]	–	three	single equivalent	3	multiple equivalents	multiple equivalents	three
